Data set [1] relates to human melanoma A375 cells. In words: In vivo efficacy in subcutaneous xenograft tumor model of human melanoma A375. The settings on record: PO, BID, day 21, BALB/c nude mouse A375 xenograft. As for the experimental part: The anti-tumor effect of WX001 was evaluated using a subcutaneous xenograft tumor model of human melanoma A375 cells in nude mouse.
• Species: mouse • Strain: BALB/c nude mouse • Age: 6-8 weeks old • Gender: female • Body weight: 18-22 grams • Supplier: Vital River Laboratory Animal Technology Co., Ltd.
• 1) Assay cells and culture: Human melanoma A375 cells were cultured in monolayer in vitro. The culture conditions were DMEM medium plus 10% fetal bovine serum, and a 37° C. 5% CO2 incubator. Routine digestion with trypsin-EDTA was performed twice a week for passage. When the cell saturation was 80%-90% and the amount reached the requirement, the cells were harvested, counted, and inoculated: • 2) Tumor tissue inoculation and grouping: 0.1 mL (5×10^5) of A375 cells were subcutaneously inoculated into the right armpit of each mouse. When the average tumor volume reached 170 mm^3, the animals were randomly divided into 4 groups and the administration was started.
• 3) Daily observation of assay animals: The development of this assay protocol and any modifications were evaluated and approved by the Institutional Animal Care and Use Committee (IACUC). […] Animals were monitored daily for health and death. […] Animal deaths and side effects in each group were recorded based on the number of animals in each group. • 4) Formulation of assay compound • a) Vehicle group: 5% DMSO+95% (20% HP-β-CD). • b) Assay compound group: A quantitative amount of the assay compound was weighed in a formulation bottle. […] A corresponding volume of 20% HP-β-CD was added and then the mixture was vortexed to obtain a homogeneous suspension. • 5) Tumor measurement and assay indicator: • a) Tumor diameter was measured twice a week with a vernier caliper. The calculation formula of tumor volume was: TV=1/2×a×b^2, wherein a and b represent the long and short diameters of tumor, respectively: • b) The tumor-inhibitory efficacy of the compound was evaluated by TGI (%). […]
A general note: A xenograft is tissue or cells of one species grown in another, often human tumour cells in immunodeficient mice.

Data set [2] concerns monkey plasma albumin. The data set is described as follows: Plasma protein binding (ultracentrifugation), monkey. Also: tested at 0.2 µM. Format: in vitro ADME. How it is done: The binding degree of the assay compound to human/mouse/rat/canine/monkey plasma albumin was studied.
• 1) Matrix preparation: on the day of the assay, plasma was thawed in cold water and centrifuged at 3220 rpm for 5 min to remove all clots. The pH of the resulting plasma was measured and adjusted to 7.4±0.1 using 1% phosphoric acid or IN sodium hydroxide as needed. • 2) Dilution procedure for the assay compound: the assay compound was dissolved in dimethyl sulfoxide (DMSO) to prepare stock solutions with concentrations of 10 mM and 2 mM, respectively. A 40 μM working solution was prepared by diluting 2 μL of stock solution (2 mM) with 98 μL of DMSO. A 400 μM working solution of the control compound was prepared by diluting 10 μL of stock solution with 240 μL of DMSO. The working solution of the compound (5 μL) was mixed well with a blank matrix (995 μL) at a ratio of 1:200 to prepare a loading matrix.
• a) An equal volume of 30 μL of loading matrix (n=2) was transferred to a sample collection plate to prepare a time 0 (TO) sample for residue determination. The sample was immediately matched with the corresponding blank buffer to a final volume of 60 μL, and the volume ratio of plasma to buffer in each well was 1:1. […] The mixture was centrifuged at 4000 rpm for 20 min and 100 μL of supernatant from each sample was analyzed by LC-MS/MS.

The nature of data set [3]: Body weight and tolerance in A375 model animals. Format: in vivo. Particulars: 12.5, 25 and 50 mg/kg PO BID, to the 21st day. As for the experimental part:
• 3) Daily observation of assay animals: The development of this assay protocol and any modifications were evaluated and approved by the Institutional Animal Care and Use Committee (IACUC). The use and welfare of assay animals were carried out in accordance with the regulations of the Association for Assessment and Accreditation of Laboratory Animal Care (AAALAC). Animals were monitored daily for health and death. […] Animal deaths and side effects in each group were recorded based on the number of animals in each group. • 4) Formulation of assay compound • a) Vehicle group: 5% DMSO+95% (20% HP-β-CD). • b) Assay compound group: A quantitative amount of the assay compound was weighed in a formulation bottle. […] A corresponding volume of 20% HP-β-CD was added and then the mixture was vortexed to obtain a homogeneous suspension. • 5) Tumor measurement and assay indicator: • a) Tumor diameter was measured twice a week with a vernier caliper. The calculation formula of tumor volume was: TV=1/2×a×b^2, wherein a and b represent the long and short diameters of tumor, respectively: • b) The tumor-inhibitory efficacy of the compound was evaluated by TGI (%). […]

“Also recorded” adds a separate entry of the source.

In the case of `Cc1cccc(CN2C(=O)c3nc(-c4nc(Nc5ccnn5C)ncc4C)sc3C23COC3)n1` [WX001], the figures for the TGI in data set [1] (12.5 mg/kg), in data set [1] (25 mg/kg) and in data set [1] (50 mg/kg) were 45%, 58% and 102%, respectively. Also, the “Plasma protein binding rate (unbound %)” value in data set [2] turned out to be 14.2%. Also, the “body weight of animals” value in data set [3] is “did not decrease significantly; also recorded: not observed to decrease significantly”. In addition, in data set [3], the tolerance result is “good”.

These data come from US20240309018A1, “THIAZOLE-LACTAM-SPIROHETEROCYCLIC COMPOUNDS AND APPLICATIONS THEREOF” (D3 BIO (WUXI) CO., LTD, priority 2021, published 2024).
